# From US20250059220A1, “SUBSTITUTED BENZOTHIOPHENE DERIVATIVES AND METHODS OF USE THEREOF” (Merck Sharp & Dohme LLC, priority 2021, published 2025)
# Experiments:
# human PTPN2 (1-387) = human PTPN2 (1-387) (Homo sapiens (Human), UniProt P17706); assay: Human PTPN2 Biochemical Assay; conditions: DiFMUP substrate
# Procedure, shortened: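 Human PTPN2 (1-387) preincubated 30 min at RT with compound (10-point 3-fold series) in Tris pH 7.4 buffer with 0.5 mM DTT, then DiFMUP substrate added for 1 h at RT. Fluorescence at ex 360/em 460 nm, normalised to no-enzyme and enzyme controls; EC50 from 4-parameter fit.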
# human PTPN1 (1-435) = human PTPN1 (1-435) (Homo sapiens (Human), UniProt P18031); assay: Human PTPN1 Biochemical Assay; conditions: DiFMUP substrate, read-out: PTP1B IC50
# human PTPN1 (1-435), sequence (P18031 whole entry): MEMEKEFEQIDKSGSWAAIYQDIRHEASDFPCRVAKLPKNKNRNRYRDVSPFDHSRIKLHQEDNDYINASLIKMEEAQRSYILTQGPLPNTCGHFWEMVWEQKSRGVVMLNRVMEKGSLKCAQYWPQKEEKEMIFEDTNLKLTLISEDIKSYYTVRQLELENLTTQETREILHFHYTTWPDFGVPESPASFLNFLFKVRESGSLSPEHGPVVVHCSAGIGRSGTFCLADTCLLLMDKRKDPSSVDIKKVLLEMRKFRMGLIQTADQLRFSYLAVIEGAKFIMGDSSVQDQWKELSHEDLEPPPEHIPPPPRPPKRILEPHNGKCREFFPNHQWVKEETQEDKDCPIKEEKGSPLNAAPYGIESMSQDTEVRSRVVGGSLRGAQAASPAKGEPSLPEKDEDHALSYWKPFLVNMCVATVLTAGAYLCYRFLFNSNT
# Procedure, shortened: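 Read-out is DiFMUP hydrolysis fluorescence (360 nm excitation, 460 nm emission) after 1 h at room temperature, following 30 min enzyme–compound preincubation.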
# human PTPN2 (1-387), sequence (P17706 other isoform, or with tags, fused parts or gaps): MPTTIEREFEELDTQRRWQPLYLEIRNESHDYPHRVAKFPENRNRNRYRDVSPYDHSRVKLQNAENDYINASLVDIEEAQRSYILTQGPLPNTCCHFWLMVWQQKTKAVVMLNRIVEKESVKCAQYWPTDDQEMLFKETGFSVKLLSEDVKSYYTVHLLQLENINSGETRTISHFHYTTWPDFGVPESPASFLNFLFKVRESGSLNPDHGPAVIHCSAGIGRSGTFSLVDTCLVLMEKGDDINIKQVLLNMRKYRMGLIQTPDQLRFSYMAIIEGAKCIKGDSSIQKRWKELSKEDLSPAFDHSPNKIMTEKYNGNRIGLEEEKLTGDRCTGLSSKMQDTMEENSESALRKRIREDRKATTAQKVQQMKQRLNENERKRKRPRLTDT
Compound,IC50 (human PTPN2 (1-387)) [µM],IC50 (human PTPN1 (1-435)) [µM]
NC(=O)c1cc(OCc2ccc(-c3ncccn3)cc2)c2sc(C(F)(F)P(=O)(O)O)c(Br)c2c1 [Compound 343],0.0193,0.128
Cc1ccc(COc2cc(C(N)=O)cc3c(Br)c(C(F)(F)P(=O)(O)O)sc23)cc1C(F)(F)F [Compound 344],0.117,0.195
NC(=O)c1cc(OCc2ccc(C(F)(F)F)cc2)c2sc(C(F)(F)P(=O)(O)O)c(Br)c2c1 [Compound 345],0.0163,0.0295
NC(=O)c1cc(OCc2ccc(-c3ccccc3)cc2)c2sc(C(F)(F)P(=O)(O)O)c(Br)c2c1 [Compound 346],0.0025,0.0164
NC(=O)c1cc(OCc2ccc(Cl)c(Cl)c2)c2sc(C(F)(F)P(=O)(O)O)c(Br)c2c1 [Compound 347],0.0238,0.0365
COc1ccc(COc2cc(C(N)=O)cc3c(Br)c(C(F)(F)P(=O)(O)O)sc23)c(C(F)(F)F)c1 [Compound 348],0.0757,0.177
COc1ccc(COc2cc(C(N)=O)cc3c(Br)c(C(F)(F)P(=O)(O)O)sc23)cc1F [Compound 349],0.022,0.0269
NC(=O)c1cc(OCc2ccc(C3CCN(CC(F)(F)F)CC3)cc2)c2sc(C(F)(F)P(=O)(O)O)c(Br)c2c1 [Compound 350],0.159,0.406
NC(=O)c1cc(OCc2ccc(F)c(C(F)(F)F)c2)c2sc(C(F)(F)P(=O)(O)O)c(Br)c2c1 [Compound 351],0.104,0.174
Cc1cc(C)c(COc2cc(C(N)=O)cc3c(Br)c(C(F)(F)P(=O)(O)O)sc23)c(C)c1 [Compound 352],0.364,0.692
NC(=O)c1cc(OCc2ccc(-n3cncn3)cc2)c2sc(C(F)(F)P(=O)(O)O)c(Br)c2c1 [Compound 353],0.0385,0.14
NC(=O)c1cc(OCc2ccc(-c3nccs3)cc2)c2sc(C(F)(F)P(=O)(O)O)c(Br)c2c1 [Compound 354],0.0096,0.0697
NC(=O)c1cc(OCc2ccc(-n3ccnc3)cc2)c2sc(C(F)(F)P(=O)(O)O)c(Br)c2c1 [Compound 355],0.0163,0.118
NC(=O)c1cc(OCc2ccc(F)c(F)c2)c2sc(C(F)(F)P(=O)(O)O)c(Br)c2c1 [Compound 356],0.0159,0.0205
NC(=O)c1cc(OCc2ccc(C(F)(F)F)c(F)c2)c2sc(C(F)(F)P(=O)(O)O)c(Br)c2c1 [Compound 357],0.0137,0.0217
CC(C)(C)c1ccc(COc2cc(C(N)=O)cc3c(Br)c(C(F)(F)P(=O)(O)O)sc23)cc1 [Compound 359],0.0352,0.109
NC(=O)c1cc(OCc2ccc(OC(F)F)cc2)c2sc(C(F)(F)P(=O)(O)O)c(Br)c2c1 [Compound 360],0.0129,0.0252
COc1ccc(COc2cc(C(N)=O)cc3c(Br)c(C(F)(F)P(=O)(O)O)sc23)cc1C(F)(F)F [Compound 361],0.0546,0.133
COc1cc(Cl)ccc1COc1cc(C(N)=O)cc2c(Br)c(C(F)(F)P(=O)(O)O)sc12 [Compound 362],0.0428,0.0767

Compound,IC50 (human PTPN2 (1-387)) [µM],IC50 (human PTPN1 (1-435)) [µM]
COc1cc(COc2cc(C(N)=O)cc3c(Br)c(C(F)(F)P(=O)(O)O)sc23)ccc1C#N [Compound 363],0.112,0.152
CS(=O)(=O)CCCOc1cc(-c2cnn[nH]2)cc2c(Br)c(C(F)(F)P(=O)(O)O)sc12 [Compound 364],0.0025,0.0026
NS(=O)(=O)CCCOc1cc(-c2cnn[nH]2)cc2c(Br)c(C(F)(F)P(=O)(O)O)sc12 [Compound 365],0.0025,0.0025
Cc1nn[nH]c1-c1cc(OCCCC(F)(F)F)c2sc(C(F)(F)P(=O)(O)O)c(Br)c2c1 [Compound 366],0.0026,0.0025
O=P(O)(O)C(F)(F)c1sc2c(OCC3CC3(F)F)cc(-c3cnn[nH]3)cc2c1Br (stereo not shown) [Compound 367],0.0122,0.0141
O=P(O)(O)C(F)(F)c1sc2c(OCC3CC3(F)F)cc(-c3cnn[nH]3)cc2c1Br (stereo not shown) [Compound 368],0.00353,0.0031
CS(=O)(=O)c1ccc(COc2cc(-c3cnn[nH]3)cc3c(Br)c(C(F)(F)P(=O)(O)O)sc23)cc1 [Compound 369],< 0.0025,< 0.0025
CCCC(C)Oc1cc(C(N)=O)cc2c(Br)c(C(F)(F)P(=O)(O)O)sc12 (stereo not shown) [Compound 370],0.14,0.133
CNS(=O)(=O)CCCOc1cc(C(N)=O)cc2c(Br)c(C(F)(F)P(=O)(O)O)sc12 [Compound 373],0.012,0.0086
CN(C)S(=O)(=O)CCCOc1cc(C(N)=O)cc2c(Br)c(C(F)(F)P(=O)(O)O)sc12 [Compound 374],0.014,0.0125
NC(=O)CCCCOc1cc(C(N)=O)cc2c(Br)c(C(F)(F)P(=O)(O)O)sc12 [Compound 375],0.0779,0.0674
NC(=O)c1cc(OCc2ccc(CS(N)(=O)=O)cc2)c2sc(C(F)(F)P(=O)(O)O)c(Br)c2c1 [Compound 376],0.0379,0.0326
CS(=O)(=O)c1ccc(COc2cc(C(N)=O)cc3c(Br)c(C(F)(F)P(=O)(O)O)sc23)cc1 [Compound 377],0.00452,0.0058
NC(=O)c1cc(OC[C@@H]2C[C@@H]2F)c2sc(C(F)(F)P(=O)(O)O)c(Br)c2c1 [Compound 378],0.0919,0.0744
CS(=O)(=O)c1ccc(COc2cc(C(N)=O)cc3c(Br)c(C(F)(F)P(=O)(O)O)sc23)cn1 [Compound 379],0.00398,0.0052
NC(=O)c1cc(OCc2ccc(S(N)(=O)=O)nc2)c2sc(C(F)(F)P(=O)(O)O)c(Br)c2c1 [Compound 380],0.0025,0.0029
NC(=O)c1cc(OC[C@H]2C[C@H](S(N)(=O)=O)C2)c2sc(C(F)(F)P(=O)(O)O)c(Br)c2c1 [Compound 381],0.0025,0.0025
NC(=O)c1cc(OC[C@H]2C[C@@H](S(N)(=O)=O)C2)c2sc(C(F)(F)P(=O)(O)O)c(Br)c2c1 [Compound 382],0.032,0.0276
NC(=O)c1cc(OCc2cccc(C(F)(F)F)c2)c2sc(C(F)(F)P(=O)(O)O)c(Br)c2c1 [Compound 383],0.0796,0.0923

Compound,IC50 (human PTPN2 (1-387)) [µM],IC50 (human PTPN1 (1-435)) [µM]
NC(=O)c1cc(OCc2cc(C(F)(F)F)cc(C(F)(F)F)c2)c2sc(C(F)(F)P(=O)(O)O)c(Br)c2c1 [Compound 384],0.351,0.299
NC(=O)c1cc(OCc2cccc3ccccc23)c2sc(C(F)(F)P(=O)(O)O)c(Br)c2c1 [Compound 385],0.124,0.166
NC(=O)c1cc(OCc2ccc3c(c2)CCS3(=O)=O)c2sc(C(F)(F)P(=O)(O)O)c(Br)c2c1 [Compound 386],0.0171,0.026
CS(=O)(=O)c1ccc(COc2cc(C(N)=O)cc3c(Br)c(C(F)(F)P(=O)(O)O)sc23)c(Cl)c1 [Compound 387],0.0151,0.0358
NC(=O)c1cc(OCc2ccc(C3(C(F)(F)F)CC3)cc2)c2sc(C(F)(F)P(=O)(O)O)c(Br)c2c1 [Compound 388],0.0593,0.132
CS(=O)(=O)c1ccc(COc2cc(C(N)=O)cc3c(Br)c(C(F)(F)P(=O)(O)O)sc23)c(F)c1 [Compound 389],0.0078,0.0141
CS(=O)(=O)c1ccc(COc2cc(C(N)=O)cc3c(Br)c(C(F)(F)P(=O)(O)O)sc23)cc1Cl [Compound 390],0.004,0.0087
Cc1cc(S(C)(=O)=O)ccc1COc1cc(C(N)=O)cc2c(Br)c(C(F)(F)P(=O)(O)O)sc12 [Compound 391],0.0063,0.0124
CC1CCS(=O)(=O)C1CCOc1cc(C(N)=O)cc2c(Br)c(C(F)(F)P(=O)(O)O)sc12 (stereo not shown) [Compound 392],0.171,0.153
CC1(c2ccc(COc3cc(C(N)=O)cc4c(Br)c(C(F)(F)P(=O)(O)O)sc34)cc2)CC1 [Compound 396],0.0205,0.0681
NC(=O)c1cc(OCc2ccc(S(N)(=O)=O)cc2)c2sc(C(F)(F)P(=O)(O)O)c(Br)c2c1 [Compound 397],0.0044,0.0077
NC(=O)c1cc(OCc2ccc(-c3cncnc3)cc2)c2sc(C(F)(F)P(=O)(O)O)c(Br)c2c1 [Compound 398],0.0232,0.0786
NC(=O)c1cc(OCc2ccc(C3CC3)cc2Cl)c2sc(C(F)(F)P(=O)(O)O)c(Br)c2c1 [Compound 399],0.069,0.213
NC(=O)c1cc(OCc2ccc([C@H]3CC[C@H](C(F)(F)F)CC3)cc2)c2sc(C(F)(F)P(=O)(O)O)c(Br)c2c1 [Compound 400],0.214,0.736
NC(=O)c1cc(OCc2ccc(-c3cccnc3)cc2)c2sc(C(F)(F)P(=O)(O)O)c(Br)c2c1 [Compound 401],0.0044,0.0362
NC(=O)c1cc(OCc2ccc(-c3ccncc3)cc2)c2sc(C(F)(F)P(=O)(O)O)c(Br)c2c1 [Compound 402],0.0101,0.0595
NC(=O)c1cc(OCC23CC(S(N)(=O)=O)(C2)C3)c2sc(C(F)(F)P(=O)(O)O)c(Br)c2c1 [Compound 403],0.004,0.0046
"O=P(O)(O)C(F)(F)c1sc2c(OCCCC(F)(F)F)cc(-c3cn[nH]c3)cc2c1Br [Compound 404, ((3-bromo-5-(1H-pyrazol-4-yl)-7-(4,4,4-trifluorobutoxy)benzo[b]thiophen-2-yl)difluoromethyl)phosphonic acid]",0.224,0.287
